For data set [1] the following is noted: 101 kPa, Liquid, Vibrating tube method.
Data set [2] is described as follows: xn = mol fraction of the nth substance listed. Conditions: 101 kPa, Liquid, x2 = 0; for mass density: Vibrating tube method; for speed of sound: Sing-around technique in a fixed-path interferometer.

Several values for one entry are separate records, joined by “and”; a condition that tells them apart may be missing. Equal values may be shown once. Numbers after ± are expanded uncertainties.

As usually defined, the mass density is mass per unit of volume. As usually defined, the speed of sound is how fast a sound wave travels through the sample.

Regarding `O` [water], the mass density in data set [1] (283 K) is 999.754 ± 0.1 kg/m3 and 999.719 ± 0.1 kg/m3 and 999.713 ± 0.1 kg/m3; in data set [1] (288 K) it was 999.166 ± 0.1 kg/m3; in data set [1] (293 K), 998.283 ± 0.1 kg/m3; in data set [1] (303 K), 995.75 ± 0.1 kg/m3; in data set [1] (308 K), 994.099 ± 0.1 kg/m3 and 994.091 ± 0.1 kg/m3 and 994.144 ± 0.1 kg/m3; in data set [1] (313 K), 992.27 ± 0.11 kg/m3 and 992.33 ± 0.1 kg/m3.

Consider `O` [water] + CCCCCCCCCCCC[n+]1ccn(C)c1.[Cl-], for which the mass density in data set [2] (283 K) was 999.719 ± 0.1 kg/m3; in data set [2] (308 K), 994.091 ± 0.1 kg/m3; in data set [2] (313 K), 992.27 ± 0.1 kg/m3. For the same compound, in data set [2] (313 K), the speed of sound is listed as 1529 ± 1.2 m/s.

With `O` [water] + CCCCCCCCCCn1cc[n+](C)c1.[Cl-], the mass density in data set [2] (283 K) amounted to 999.713 ± 0.1 kg/m3; in data set [2] (308 K) it was 994.099 ± 0.1 kg/m3. Besides, the speed of sound in data set [2] (313 K) is listed as 1529 ± 1.2 m/s.

Turning to `O` [water] + CCCCCCCC[n+]1ccn(C)c1.[Cl-], the mass density in data set [2] (283 K) stood at 999.754 ± 0.1 kg/m3; in data set [2] (288 K), 999.166 ± 0.1 kg/m3; in data set [2] (293 K) it was 998.283 ± 0.1 kg/m3; in data set [2] (303 K), 995.75 ± 0.1 kg/m3; in data set [2] (308 K), 994.144 ± 0.1 kg/m3; in data set [2] (313 K) it was 992.33 ± 0.1 kg/m3. Further, the speed of sound in data set [2] (313 K) was found to be 1529 ± 1.2 m/s.
